Source: PubChem BioAssay AID1963447 (Molecular Pharmacology Branch, DTP, NCI, 2024)

Test system: 885512-296-R-J2-PDC complex spheroid growth, % test/control
Experiment: Anticancer human tumor 885512-296-R-J2-PDC patient-derived breast carcinoma cell line growth inhibition [Asc]
Settings: for IC50: curve of first compound; for viability, T/C: stronger effect = lower value; active means viability on the fitted dose curve at most 10% of control; inactive means the rest
Summary of the method: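 Concentration series start at each agent's clinical Cmax, or at 10 microM when none is established, and drop in half-log steps; agents are applied alone or together to complex spheroids built with HUVEC and hMSC.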
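Further: spheroids exposed to compounds for seven days.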
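Wherever viability, T/C is given: 100% = DMSO vehicle control wells.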

NC(=O)C(=Cn1cnc(-c2cc(C(F)(F)F)cc(C(F)(F)F)c2)n1)c1cncnc1 + CCN1C(C(=O)NC23CCC(C(=O)O)(CC2)CC3)C(c2cccc(Cl)c2F)C2(C(=O)Nc3cc(Cl)ccc32)C12CCCCC2
42.9 nM: IC50 (second compound 0.3 µM)
44 nM: IC50 (second compound 0.0949 µM)
39.4 nM: IC50 (second compound 0.949 µM)
active: viability, T/C (second compound 0.03 µM, first compound 0.0949 µM) 9.51% | viability, T/C (second compound 0.03 µM, first compound 0.3 µM) 1.11% | viability, T/C (second compound 0.0949 µM, first compound 0.0949 µM) 6.79% | viability, T/C (second compound 0.0949 µM, first compound 0.3 µM) 0.89% | viability, T/C (second compound 0.3 µM, first compound 0.0949 µM) 6.76% | viability, T/C (second compound 0.3 µM, first compound 0.3 µM) 0.83% | viability, T/C (second compound 0.949 µM, first compound 0.0949 µM) 6.15% | viability, T/C (second compound 0.949 µM, first compound 0.3 µM) 1.27% | viability, T/C (second compound 3 µM, first compound 0.0949 µM) 4.94% | viability, T/C (second compound 3 µM, first compound 0.3 µM) 0.76%
0.949 nM: IC50 (second compound 3 µM)
45.1 nM: IC50 (second compound 0.03 µM)
inactive: viability, T/C (second compound 0.03 µM, first compound 0.000949 µM) 108% | viability, T/C (second compound 0.03 µM, first compound 0.003 µM) 95.1% | viability, T/C (second compound 0.03 µM, first compound 0.00949 µM) 111% | viability, T/C (second compound 0.03 µM, first compound 0.03 µM) 72.4% | viability, T/C (second compound 0.0949 µM, first compound 0.000949 µM) 98.6% | viability, T/C (second compound 0.0949 µM, first compound 0.003 µM) 93.7% | viability, T/C (second compound 0.0949 µM, first compound 0.00949 µM) 113% | viability, T/C (second compound 0.0949 µM, first compound 0.03 µM) 72.2% | viability, T/C (second compound 0.3 µM, first compound 0.000949 µM) 74.4% | viability, T/C (second compound 0.3 µM, first compound 0.003 µM) 91% | viability, T/C (second compound 0.3 µM, first compound 0.00949 µM) 92.2% | viability, T/C (second compound 0.3 µM, first compound 0.03 µM) 69.3% | viability, T/C (second compound 0.949 µM, first compound 0.000949 µM) 70.3% | viability, T/C (second compound 0.949 µM, first compound 0.003 µM) 72.2% | viability, T/C (second compound 0.949 µM, first compound 0.00949 µM) 80.9% | viability, T/C (second compound 0.949 µM, first compound 0.03 µM) 63.4% | viability, T/C (second compound 3 µM, first compound 0.000949 µM) 42.7% | viability, T/C (second compound 3 µM, first compound 0.003 µM) 48.9% | viability, T/C (second compound 3 µM, first compound 0.00949 µM) 48.3% | viability, T/C (second compound 3 µM, first compound 0.03 µM) 55%

NC1CCC(NC2CC2c2ccccc2)CC1 (stereo not given) + CCN1C(C(=O)NC23CCC(C(=O)O)(CC2)CC3)C(c2cccc(Cl)c2F)C2(C(=O)Nc3cc(Cl)ccc32)C12CCCCC2
inactive: viability, T/C (second compound 0.03 µM, first compound 0.000316 µM) 116% | viability, T/C (second compound 0.03 µM, first compound 0.001 µM) 129% | viability, T/C (second compound 0.03 µM, first compound 0.00316 µM) 120% | viability, T/C (second compound 0.03 µM, first compound 0.01 µM) 123% | viability, T/C (second compound 0.03 µM, first compound 0.0316 µM) 125% | viability, T/C (second compound 0.03 µM, first compound 0.1 µM) 118% | viability, T/C (second compound 0.0949 µM, first compound 0.000316 µM) 117% | viability, T/C (second compound 0.0949 µM, first compound 0.001 µM) 123% | viability, T/C (second compound 0.0949 µM, first compound 0.00316 µM) 127% | viability, T/C (second compound 0.0949 µM, first compound 0.01 µM) 114% | viability, T/C (second compound 0.0949 µM, first compound 0.0316 µM) 124% | viability, T/C (second compound 0.0949 µM, first compound 0.1 µM) 119% | viability, T/C (second compound 0.3 µM, first compound 0.000316 µM) 108% | viability, T/C (second compound 0.3 µM, first compound 0.001 µM) 116% | viability, T/C (second compound 0.3 µM, first compound 0.00316 µM) 118% | viability, T/C (second compound 0.3 µM, first compound 0.01 µM) 108% | viability, T/C (second compound 0.3 µM, first compound 0.0316 µM) 118% | viability, T/C (second compound 0.3 µM, first compound 0.1 µM) 118% | viability, T/C (second compound 0.949 µM, first compound 0.000316 µM) 99.8% | viability, T/C (second compound 0.949 µM, first compound 0.001 µM) 102% | viability, T/C (second compound 0.949 µM, first compound 0.00316 µM) 104% | viability, T/C (second compound 0.949 µM, first compound 0.01 µM) 99.7% | viability, T/C (second compound 0.949 µM, first compound 0.0316 µM) 103% | viability, T/C (second compound 0.949 µM, first compound 0.1 µM) 104% | viability, T/C (second compound 3 µM, first compound 0.000316 µM) 66.5% | viability, T/C (second compound 3 µM, first compound 0.001 µM) 62.2% | viability, T/C (second compound 3 µM, first compound 0.00316 µM) 62.2% | viability, T/C (second compound 3 µM, first compound 0.01 µM) 70.7% | viability, T/C (second compound 3 µM, first compound 0.0316 µM) 71.4% | viability, T/C (second compound 3 µM, first compound 0.1 µM) 74.8%
> 100 nM: IC50 (second compound 0.03 µM) | IC50 (second compound 0.0949 µM) | IC50 (second compound 0.3 µM) | IC50 (second compound 0.949 µM) | IC50 (second compound 3 µM)

COc1c(OCCCN2CCOCC2)ccc2c3n(c(=NC(=O)c4cnc(N)nc4)nc12)CCN3 + CNC(C)C(=O)NC1CN(S(=O)(=O)c2cccc(S(=O)(=O)N3CCC4CCC(C(=O)NC(c5ccccc5)c5ccccc5)N4C(=O)C(NC(=O)C(C)NC)C3)c2)CCC2CCC(C(=O)NC(c3ccccc3)c3ccccc3)N2C1=O
inactive: viability, T/C (second compound 0.01 µM, first compound 0.00316 µM) 85.2% | viability, T/C (second compound 0.01 µM, first compound 0.01 µM) 86.4% | viability, T/C (second compound 0.01 µM, first compound 0.0316 µM) 79.6% | viability, T/C (second compound 0.01 µM, first compound 0.1 µM) 88.2% | viability, T/C (second compound 0.01 µM, first compound 0.316 µM) 55.1% | viability, T/C (second compound 0.0316 µM, first compound 0.00316 µM) 98.4% | viability, T/C (second compound 0.0316 µM, first compound 0.01 µM) 92.1% | viability, T/C (second compound 0.0316 µM, first compound 0.0316 µM) 89.3% | viability, T/C (second compound 0.0316 µM, first compound 0.1 µM) 85.3% | viability, T/C (second compound 0.0316 µM, first compound 0.316 µM) 59.3% | viability, T/C (second compound 0.1 µM, first compound 0.00316 µM) 104% | viability, T/C (second compound 0.1 µM, first compound 0.01 µM) 98.6% | viability, T/C (second compound 0.1 µM, first compound 0.0316 µM) 86.3% | viability, T/C (second compound 0.1 µM, first compound 0.1 µM) 81.8% | viability, T/C (second compound 0.1 µM, first compound 0.316 µM) 61.5% | viability, T/C (second compound 0.1 µM, first compound 1 µM) 8.94% | viability, T/C (second compound 0.316 µM, first compound 0.00316 µM) 89.5% | viability, T/C (second compound 0.316 µM, first compound 0.01 µM) 93.2% | viability, T/C (second compound 0.316 µM, first compound 0.0316 µM) 97.4% | viability, T/C (second compound 0.316 µM, first compound 0.1 µM) 83.6% | viability, T/C (second compound 0.316 µM, first compound 0.316 µM) 62.6% | viability, T/C (second compound 1 µM, first compound 0.00316 µM) 102% | viability, T/C (second compound 1 µM, first compound 0.01 µM) 105% | viability, T/C (second compound 1 µM, first compound 0.0316 µM) 99.8% | viability, T/C (second compound 1 µM, first compound 0.1 µM) 79% | viability, T/C (second compound 1 µM, first compound 0.316 µM) 54.5%
394 nM: IC50 (second compound 0.0316 µM)
343 nM: IC50 (second compound 1 µM)
410 nM: IC50 (second compound 0.316 µM)
358 nM: IC50 (second compound 0.01 µM)
active: viability, T/C (second compound 0.01 µM, first compound 1 µM) 7.8% | viability, T/C (second compound 0.0316 µM, first compound 1 µM) 8.15% | viability, T/C (second compound 0.316 µM, first compound 1 µM) 7.92% | viability, T/C (second compound 1 µM, first compound 1 µM) 8.06%
387 nM: IC50 (second compound 0.1 µM)
